Laboratory results as given in patent US20250101044A1, “METAL-ORGANIC FRAMEWORK COMPOSITE AND PREPARATION METHOD AND USE THEREOF” (priority 2021, published 2025).
In brackets after ≈: the same amount, converted by molar mass.

System: S. aureus
Experiment: MIC and MBC antibacterial test
Type: cell-based
Conditions: Staphylococcus aureus

MIC: 4 mg/L (≈ 22.2 µM)
Structure (SMILES): O=C(O)/C=C/c1ccc(O)c(O)c1 [CA, caffeic acid]
MBC: 4 mg/L (≈ 22.2 µM)
